≈ marks a conversion by molar mass, not a printed value. Some results are limits rather than exact numbers.

Test [1] relates to E. coli JM83 cells harboring pUC19. Briefly: Minimum inhibitory concentrations on LB plates, cells harboring pUC19. The conditions noted are these: Escherichia coli, cells with pUC19, 37 °C, 20 h, same for 3.5 × 10^5 and 3.5 × 10^3 cells. It counts as cell-based. Here is the method:
(§1) The E. coli wild-type cells harboring pUC19 or pSP007 plasmid were grown overnight in LB medium containing ampicillin. The cells were diluted 10- and 1000-times, and 5 µl of each dilution (corresponding to 3.5×10^5 cells and 3.5×10^3 cells, respectively) was spotted on LB plates containing serial dilutions of kanamycin, chloramphenicol, spectinomycin, tetracycline and DHCP. Plates were incubated at 37° C. for 20 h. […] The MIC values for cells harboring pUC19 and pSP007 were same for spectinomycin, chloramphenicol and tetracycline. The MIC value was two times higher for kanamycin for the cells harboring pSP007 than the cells with pUC19. The MIC value for DHCP on the other hand was 8 times higher for the cells-harboring pSP007 than that for the cells with pUC19.
(§2) MICs for both dilutions of the cells (3.5×10^5 and 3.5×10^3) were the same.

Test [2] deals with E. coli JM83 cells harboring pSP007. As to the kind of experiment: Minimum inhibitory concentrations on LB plates, cells harboring pSP007 (dep, ORF389). The conditions noted are these: for MIC: Escherichia coli, cells with pSP007, LB plates, 37 °C, 20 h, same for 3.5 × 10^5 and 3.5 × 10^3 cells; for MIC value for cells harboring pSP007 relative to cells with pUC19: pSP007 versus pUC19. Format: cell-based, Escherichia coli. As to the method:
as §1, §2

Test [3] concerns E. coli wild-type strain JM83. As to the kind of experiment: Effect of DHCP on the growth of E. coli in LB medium (Klett units). It counts as cell-based, Escherichia coli. The conditions noted are these: for effect on growth: LB medium. Here is the method: (§3) A. The JM83 cells were grown in LB medium up to Klett unit of 50 and DHCP was added at various concentrations (0-400 µM). After the growth reached to Klett unit of 90-100, cells were diluted with medium containing respective concentrations of DHCP and growth was further monitored. DHCP concentration: 0 . mu.M, open squares; 50 . mu.M, closed diamonds; 100 µM, open circles; 250 . mu.M, open diamonds; 400 . mu.M closed squares. [0023] B. Overnight grown cells of E. coli JM83 were diluted appropriately and plated on LB plates containing different concentrations of DHCP (0-350 . mu.M). The number of colonies on the plate without DHCP was taken as 100% and the other numbers were expressed as relative percentages.
The E. coli wild-type strain JM83 [F^-araΔ (lac-proAB) rpsL(st^r)](Yanisch-Perron et al., 1985) was grown in Luria broth (LB). Media were supplemented with ampicillin (final concentration of 50 . mu.g/ml) whenever required. To check the effect of DHCP on the growth of E. coli, cells grown overnight in LB medium were diluted into fresh LB medium. After the growth reached to the Klett unit of 50, DHCP was added at various concentrations (0-400 . mu.M) and growth was further monitored. After it reached to the Klett unit of 90-100, it was diluted I O-fold into media containing respective concentrations of DHCP. […] In the presence of 400 . mu.M DHCP, cell growth stopped after 4 h of incubation.

The test system of a further test is E. coli JM83. Briefly: Colony formation ability of E. coli on LB plates containing DHCP. Format: cell-based, Escherichia coli. Here is the method:
as §3
To check the colony formation ability of E. coli at various concentrations of DHCP, cells grown overnight in LB medium were diluted appropriately and plated on LB plates containing DHCP (0-350 . mu.M). After incubation at 37. degree. C., the number of colonies on each plate were counted. The number of colonies on the control plate without DHCP was taken as 100% and the other numbers were expressed as relative percentages (FIG. 2B). In the presence of 300 µM DHCP, 100-fold decrease in the colony numbers was observed.

In general, MIC refers to the lowest concentration that inhibits growth of the organism. A high value points to weaker potency. In the case of `O=C1C=CC(O)C1O` (stereo not drawn) [DHCP, 4,5-dihydroxy-2-cyclopenten-1-one], the minimum inhibitory concentration (MIC) in test [1] stood at 25 µg/mL (≈ 219 µM); in test [2], 200 µg/mL (≈ 1750 µM). Besides, in test [2], the “MIC value for cells harboring pSP007 relative to cells with pUC19” value is given as 8 times. In addition, the figures for the effect on growth result in test [3] (50 μM DHCP), in test [3] (100 μM DHCP) and in test [3] (250 μM DHCP) were “growth was slowed after 3 h of incubation”, “grew more slowly after 3 h incubation” and “growth was severely impaired after 3 h of incubation”, respectively. Further, the “time to reach the maximum density” value in test [3] (50 μM DHCP, similar to that without DHCP) is listed as 8 h. Further, the maximum cell density entry in test [3] (100 μM DHCP, versus without DHCP) was “lower than that without DHCP”. The “time after which cells stopped growing” value in test [3] (250 μM DHCP) is 5 h. In addition, the “length of elongated cells (filaments) relative to control cells” value in test [3] (250 μM DHCP for 8 h, microscopic examination) is “approximately 15 fold”. Moreover, the “time after which cell growth stopped” value in test [3] (400 μM DHCP) is on record as 4 h. Also, in the test on E. coli JM83 (300 μM DHCP, LB plates, 37 °C), the “decrease in the colony numbers” value turned out to be 100 fold. In the test with E. coli JM83 (350 μM DHCP, 1×10^4 cells plated on LB medium), the colony formation entry is “no colonies were obtained”. In the test with E. coli JM83 (E. coli), the “concentration at which DHCP inhibits cell growth” value is no less than 350 µM.
As to `O=C(N[C@H](CO)[C@H](O)c1ccc([N+](=O)[O-])cc1)C(Cl)Cl` [chloramphenicol], the MIC in test [1] and in test [2] was 6.25 µg/mL (≈ 19.3 µM) each time. For the same compound, the “MIC value for cells harboring pSP007 relative to cells with pUC19” value in test [2] is recorded as “same”.
`NC[C@H]1O[C@H](O[C@H]2[C@H](O)[C@@H](O[C@H]3O[C@H](CO)[C@@H](O)[C@H](N)[C@H]3O)[C@H](N)C[C@@H]2N)[C@H](O)[C@@H](O)[C@@H]1O` [kanamycin]: the MIC in test [1] amounted to 25 µg/mL (≈ 51.6 µM); in test [2] it was 50 µg/mL (≈ 103 µM).
In test [1], `CN[C@@H]1[C@H](O)[C@H](NC)[C@H]2O[C@@]3(O)C(=O)C[C@@H](C)O[C@H]3O[C@@H]2[C@H]1O` [spectinomycin] returned an MIC of 12.5 µg/mL (≈ 37.6 µM). In test [2], the MIC was determined as 12.5 µg/mL (≈ 37.6 µM) and the “MIC value for cells harboring pSP007 relative to cells with pUC19” value is listed as “same”.
Regarding `CN(C)[C@@H]1C(O)=C(C(N)=O)C(=O)[C@@]2(O)C(O)=C3C(=O)c4c(O)cccc4[C@@](C)(O)[C@H]3C[C@@H]12` [tetracycline], the minimal inhibitory concentration (MIC) in test [1] and in test [2] was 3.12 µg/mL (≈ 7.03 µM) each time.

These data come from patent publication US7476526B2, “Method of using a gene conferring resistance to 4,5-dihydroxy-2-cyclopenten-1-one (DHCP) and identifying inhibitors of a polypeptide encoded by the gene” (priority 2000, dated 2009).
